This is an account of results in patent publication US20220409692A1, “Systems Chemico-Pharmacology Drugs and Methods of Use” (The Medical College of Wisconsin, priority 2019, published 2022).

Peptide text beside a SMILES is read from it.

The assay has as its system hyperoxic neonatal rat pups. The assay can be described thus: Hyperoxia-induced BPD in neonatal rat pups: lung histology, cell counts and morphometrics. The format is in vivo, Sprague-Dawley rat. The text has this: Since the number of neonatal rat pups per pregnant dam limits the number of experimental conditions that can be compared, we modified our standard experimental design protocol. The first experiment was designed to determine if hyperoxia increased BPD, while the second was designed to determine if inhibiting MPO oxidant production reduced BPD. At least three sets of neonatal pups from three different dams were used for each experiment. Pups were fed ad libitum from nursing dams. Pups were weighed and inspected daily in room air for less than ten minutes. Nursing dams were switched daily to avoid the impact of nutritional status. Experience has taught us that severity of hyperoxia-induced BPD is litter dependent. To minimize litter differences, we determined the effects of hyperoxia vs. normoxia on BPD in neonatal pups by mixing pups from the litters and randomly reallocating pups with nursing dams.
Immunohistochemistry and Immunocytochemistry: After cannulating the trachea with an Instech Solomon (20G) stainless steel feeding tube (Plymouth Meeting, Pa.), the lungs were inflated with 10% neutral buffered formalin at 25 cm-H2O (2.4 kPa) for 1 h. Lungs were removed after the trachea were securely tied with surgical silk to maintain the pressure, and perfusion fixed with an additional aliquot of 10% neutral buffered formalin for 24 h before paraffin embedding. Lung sections (5 μm) were mounted on SuperFrost plus-coated slides (Denville Scientific, Metuchen, N.J.). Slides were deparaffinized and sections stained with hematoxylin and eosin (H&E). Histology images were captured with a mounted digital camera using an Olympus IX 51 microscope and a 10× objective. Inflammatory cells, myeloid cells including neutrophils, monocytes, and macrophages, were stained with MPO antibody (1:200) overnight at 4° C. and HPR-conjugated anti-rabbit antibody (1:1000) at room temperature for one hour then visualized by diaminobenzidine to generate a dark-brown color. Blood vessels were stained with RECA-1 and visualized with horseradish-conjugated secondary antibody and diaminobenzidine. The average of three sections per pup, and five counts per section (15 counts/pup) was used for statistical analysis. Quantified data were obtained and entered into the record using predetermined codes by one of the coauthors who was not involved in taking the images.
Morphometric Analysis: The mean linear intercept (MLI), or chord length, was used as a method to estimate the volume-to-surface ratio of acinar airspaces whereas radial alveolar count (RAC) and secondary septa were investigated to study the complexity of lung structure (21). Ten equally spaced horizontal lines were drawn on each picture, and the number of intercepts through the alveolar wall was counted. MLI was obtained by the number of times the traverses are placed on the lung times the length of the traverse then divided by the sum of all the intercepts. For the RAC, a line from the center of the respiratory tract perpendicular to the nearest connective tissue septum was drawn, and alveoli intercepting with the line were counted. For measurement of secondary septa, elastin was stained with resorcin fuchsin and Van Gieson's solution.
Since the number of neonatal rat pups per pregnant dam limits the number of experimental conditions that can be compared, we modified our standard experimental protocol. The first study was designed to determine if hyperoxia increased BPD and caused a change in proteins of interest. Data from these studies can be found in on-line supplemental data. The second study was designed to determine if inhibiting MPO toxic oxidant production reduced BPD. At least three sets of neonatal pups from three different dams were used for each study. Pups were fed ad libitum from nursing dams. Pups were inspected daily starting on P1 and weighed starting on P3 in room air for less than ten minutes. Nursing dams were switched daily to avoid the impact of oxygen toxicity. […]

[1] abbreviates: hyperoxic pups, KYC vs PBS, P10.

For the compound `CC(=O)N[C@@H](CCCCN)C(=O)N[C@@H](Cc1ccc(O)cc1)C(=O)N[C@@H](CS)C(N)=O` [KYC, N-acetyl lysyltyrosylcysteine amide] (Ac-Lys-Tyr-Cys-NH2), under “KYC-treated HOX group, P10, PBS-treated HOX 4.2±0.6”, the “RAC (radial alveolar count)” value worked out at 6.3±0.4. In addition, the secondary septation (KYC-treated HOX group, P10, PBS-treated HOX 5.0±1.3) was 7.8±1.2 /HPF. Further, the capillary count (KYC-treated HOX group, P10, PBS-treated HOX 5.2±1.0) is on record as 9.7±3.0 /HPF. Besides, the “MLI (mean linear intercept)” value (KYC-treated HOX group, P10, PBS-treated HOX 95.9±9.1) was 74.1±4.7 μm. Also, where the note is “hyperoxia (O2>90%) pups, KYC 5 mg/kg twice per day i.p. P2-P10, lungs at P10, PBS 2.0±0.7”, the “MPO-positive myeloid cell count” value was 0.8±0.7 /HPF. Further, the “reduction of myeloid cell recruitment (MPO+ myeloid cells)” value (hyperoxic lungs, KYC vs PBS, P10) is “approximately 50%”. For the same compound, under setting [1], the “decrease of MLI” value is “approximately 22%”, the “increase of RAC” value is recorded as “approximately 35%”, the “increase of blood vessel counts” value was about 92% and the “increase of secondary septa” value is about 55%. The “8-OH-dG immunofluorescence staining (oxidative DNA damage)” value (hyperoxic rat pups, KYC vs PBS) is listed as “reduced 8-OH-dG in the nuclei of lung cells”.
